{"source": "ChEMBL document CHEMBL1201862", "about": "“PubChem BioAssay data set” (2004)", "key": {"[1]": {"molecular_target": "T1, Polyadenylate-binding protein 1 (Homo sapiens, UniProt P11940)", "T1 sequence (P11940 whole entry, the tested form may be a part)": "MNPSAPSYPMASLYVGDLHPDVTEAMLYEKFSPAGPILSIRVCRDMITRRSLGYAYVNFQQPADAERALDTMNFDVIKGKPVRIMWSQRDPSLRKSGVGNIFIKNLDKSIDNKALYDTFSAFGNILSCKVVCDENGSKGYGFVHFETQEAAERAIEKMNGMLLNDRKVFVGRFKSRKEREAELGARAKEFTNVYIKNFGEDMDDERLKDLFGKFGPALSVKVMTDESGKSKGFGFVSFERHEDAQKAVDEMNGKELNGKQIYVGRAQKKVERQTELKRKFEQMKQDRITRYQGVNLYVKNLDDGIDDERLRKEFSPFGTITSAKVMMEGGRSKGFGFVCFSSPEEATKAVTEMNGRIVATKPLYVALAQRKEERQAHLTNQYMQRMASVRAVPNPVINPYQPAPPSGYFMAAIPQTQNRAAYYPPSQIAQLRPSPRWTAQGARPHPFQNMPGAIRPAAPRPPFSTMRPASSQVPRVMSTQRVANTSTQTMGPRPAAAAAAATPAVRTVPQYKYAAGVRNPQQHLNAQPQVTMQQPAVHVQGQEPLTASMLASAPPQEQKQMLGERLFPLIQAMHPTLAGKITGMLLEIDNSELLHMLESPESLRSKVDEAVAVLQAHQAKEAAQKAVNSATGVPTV", "assay": "MLLE domain peptide-binding blockers, IC50 – biochemical, fluorescence polarization, FITC-PAM2 peptide, dose response (AID 602259)", "assay_type": "functional", "settings": "read-out: IC50_Mean"}, "[2]": {"molecular_target": "T1, Polyadenylate-binding protein 1", "assay": "MLLE binding blockers, Cy5 peptide tracer – biochemical, fluorescence polarization, Cy5-PAM2 peptide, secondary, miRNA deadenylation inhibitor project, dose response (AID 602260)", "assay_type": "functional", "settings": "read-out: IC50_Mean"}, "[3]": {"molecular_target": "T2, Rac GTPase-activating protein 1 (Homo sapiens, UniProt Q9H0H5)", "T2 sequence (Q9H0H5 whole entry)": "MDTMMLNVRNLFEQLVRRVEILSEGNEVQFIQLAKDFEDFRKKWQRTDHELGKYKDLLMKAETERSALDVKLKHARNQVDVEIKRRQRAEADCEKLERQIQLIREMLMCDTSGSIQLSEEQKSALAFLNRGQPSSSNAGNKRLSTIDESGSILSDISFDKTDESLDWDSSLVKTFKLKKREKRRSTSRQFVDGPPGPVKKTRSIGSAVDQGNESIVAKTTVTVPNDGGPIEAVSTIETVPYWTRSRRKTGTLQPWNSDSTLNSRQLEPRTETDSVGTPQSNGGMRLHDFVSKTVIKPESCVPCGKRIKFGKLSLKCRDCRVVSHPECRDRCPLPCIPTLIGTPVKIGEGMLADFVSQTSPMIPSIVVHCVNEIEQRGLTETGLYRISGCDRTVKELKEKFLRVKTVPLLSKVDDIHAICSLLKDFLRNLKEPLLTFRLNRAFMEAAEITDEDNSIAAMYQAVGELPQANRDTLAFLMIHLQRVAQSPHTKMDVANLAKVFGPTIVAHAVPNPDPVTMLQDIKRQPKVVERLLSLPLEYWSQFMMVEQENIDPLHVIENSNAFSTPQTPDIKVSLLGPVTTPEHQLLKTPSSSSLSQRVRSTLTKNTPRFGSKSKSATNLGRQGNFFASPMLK", "assay": "blockers of MgcRacGAP-driven Rac1 GTP hydrolysis – biochemical, ADP Hunter fluorescence, primary and confirmatory, confirmation (AID 624330)", "assay_type": "functional"}, "Caspase-9": {"molecular_target": "Caspase-9 (Homo sapiens, UniProt P55211)", "sequence (P55211 1-315 limits assumed)": "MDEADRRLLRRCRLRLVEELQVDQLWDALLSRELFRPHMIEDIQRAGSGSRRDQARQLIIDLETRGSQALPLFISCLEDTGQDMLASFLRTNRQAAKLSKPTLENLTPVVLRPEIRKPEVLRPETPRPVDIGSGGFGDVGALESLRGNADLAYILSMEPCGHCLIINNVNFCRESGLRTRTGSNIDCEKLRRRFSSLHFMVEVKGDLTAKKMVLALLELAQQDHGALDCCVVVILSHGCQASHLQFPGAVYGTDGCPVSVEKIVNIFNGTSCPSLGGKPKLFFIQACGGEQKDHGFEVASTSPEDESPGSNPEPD", "sequence (P55211 331-416 limits assumed)": "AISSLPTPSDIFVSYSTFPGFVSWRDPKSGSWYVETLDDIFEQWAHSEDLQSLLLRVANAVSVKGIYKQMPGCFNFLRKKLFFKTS", "assay": "inhibitors of purified CASP9 protease – biochemical, fluorescence, plate reader, cherry-picked samples, selectivity assay for caspase-6 inhibitor project, dose response (AID 743293)"}, "Caspase-6": {"molecular_target": "T3, Caspase-6 (Homo sapiens, UniProt P55212)", "T3 sequence (P55212 whole entry)": "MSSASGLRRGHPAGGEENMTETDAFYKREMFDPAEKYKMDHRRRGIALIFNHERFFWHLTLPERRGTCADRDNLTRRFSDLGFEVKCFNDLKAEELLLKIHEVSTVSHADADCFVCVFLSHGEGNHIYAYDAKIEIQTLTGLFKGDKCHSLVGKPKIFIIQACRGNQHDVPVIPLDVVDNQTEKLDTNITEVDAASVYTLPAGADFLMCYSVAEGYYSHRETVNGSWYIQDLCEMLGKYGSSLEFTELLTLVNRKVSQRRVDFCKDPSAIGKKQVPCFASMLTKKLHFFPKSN", "assay": "inhibition of CASP6 peptide cleavage – biochemical, VEID-R110 fluorescence, cherry-pick, dose response (AID 720632)"}, "Caspase-7": {"molecular_target": "Caspase-7 (Homo sapiens, UniProt P55210)", "sequence (P55210 24-198 limits assumed)": "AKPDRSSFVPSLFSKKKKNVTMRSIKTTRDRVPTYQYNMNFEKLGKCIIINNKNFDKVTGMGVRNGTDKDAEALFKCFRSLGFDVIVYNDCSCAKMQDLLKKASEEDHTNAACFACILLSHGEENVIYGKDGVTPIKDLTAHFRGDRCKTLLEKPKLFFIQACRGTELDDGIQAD", "sequence (P55210 207-303 limits assumed)": "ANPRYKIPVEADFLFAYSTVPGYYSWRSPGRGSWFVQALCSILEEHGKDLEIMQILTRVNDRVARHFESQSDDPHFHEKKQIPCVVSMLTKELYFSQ", "assay": "caspase-7 enzyme inhibition, selectivity check – biochemical, DEVD-R110 fluorescence, cherry-pick, selectivity assay for caspase-6 inhibitor project, dose response (AID 743295)", "assay_type": "functional"}, "[4]": {"assay": "HIV-1 Vif–A3G interaction blockers – biochemical, TR-FRET, GST-Vif 1-94, biotin-A3G peptide, dose response retest, primary screen (AID 1117319);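 further: inhibitors lower the FRET signal by blocking Vif and A3G binding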", "assay_type": "functional"}, "[5]": {"assay": "HIV-1 AD8 envelope cell-cell fusion blockers – cherry-pick, dose response (AID 652062);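 further: potency is for inhibitors of fusion seen as a drop in luminescence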", "assay_type": "functional, cell-based"}, "[6]": {"assay": "blockers of HIV-1 envelope-mediated cell-cell fusion – cherry-pick, dose response (AID 652057)", "assay_type": "functional, cell-based"}, "[7]": {"assay": "Luminescence Cell-Based Dose Response HTS to Identify Inhibitors of 5'UTR Stem-Loop Driven Prion Protein mRNA Translation in H4 Neuroglioblastoma Cells. [Related pubchem assays: 1827 (Project Summary), 1813 (Primary HTS)]", "assay_type": "functional"}, "[8]": {"assay": "off-target signal loss in HeLa-CEM21 co-culture – HeLa F-luc CTL cells, cherry-picked, counter-screen for HIV-1 Env fusion inhibitor project, dose response (AID 652040);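 further: potency for signal decrease marking cytotoxic or nonspecific inhibition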", "assay_type": "functional, cell-based"}, "[9]": {"assay": "luciferase reporter signal suppression in cells – H4 neuroglioma cells, luminescence, dose response (AID 1990)", "assay_type": "functional, cell-based"}, "[10]": {"assay": "alpha-synuclein stem-loop luciferase translation blockers – H4 neuroglioma cells, luminescence, confirmation (AID 1988)", "assay_type": "functional, cell-based"}, "[11]": {"assay": "viability loss in Vero cells – cytotoxicity control for Vif-APOBEC3G degradation inhibitor project, dose response (AID 1117358)", "assay_type": "functional", "settings": "Vero"}, "[12]": {"molecular_target": "RNA-editing ligase 1, mitochondrial (Trypanosoma brucei brucei, UniProt P86926)", "sequence (P86926 whole entry)": "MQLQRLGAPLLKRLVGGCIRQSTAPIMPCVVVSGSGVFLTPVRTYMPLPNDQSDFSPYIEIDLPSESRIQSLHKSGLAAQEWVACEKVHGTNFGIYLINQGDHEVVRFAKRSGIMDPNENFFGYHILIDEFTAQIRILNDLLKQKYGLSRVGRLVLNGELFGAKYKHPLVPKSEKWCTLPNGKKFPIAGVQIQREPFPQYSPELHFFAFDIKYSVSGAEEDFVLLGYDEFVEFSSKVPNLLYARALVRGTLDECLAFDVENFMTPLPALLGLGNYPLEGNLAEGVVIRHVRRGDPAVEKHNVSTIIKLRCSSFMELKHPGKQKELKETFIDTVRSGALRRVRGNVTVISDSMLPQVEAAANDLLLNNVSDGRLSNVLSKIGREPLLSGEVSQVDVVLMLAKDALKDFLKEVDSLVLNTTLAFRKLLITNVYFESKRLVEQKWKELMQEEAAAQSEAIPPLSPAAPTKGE", "assay": "inhibition of trypanosome RNA editing ligase – biochemical, fluorescence, Trypanosoma brucei, dose response (AID 1117295)", "assay_type": "functional"}, "Genome polyprotein": {"molecular_target": "Genome polyprotein (dengue virus type 2, UniProt P29990)", "sequence (P29990 2492-3391 limits assumed)": "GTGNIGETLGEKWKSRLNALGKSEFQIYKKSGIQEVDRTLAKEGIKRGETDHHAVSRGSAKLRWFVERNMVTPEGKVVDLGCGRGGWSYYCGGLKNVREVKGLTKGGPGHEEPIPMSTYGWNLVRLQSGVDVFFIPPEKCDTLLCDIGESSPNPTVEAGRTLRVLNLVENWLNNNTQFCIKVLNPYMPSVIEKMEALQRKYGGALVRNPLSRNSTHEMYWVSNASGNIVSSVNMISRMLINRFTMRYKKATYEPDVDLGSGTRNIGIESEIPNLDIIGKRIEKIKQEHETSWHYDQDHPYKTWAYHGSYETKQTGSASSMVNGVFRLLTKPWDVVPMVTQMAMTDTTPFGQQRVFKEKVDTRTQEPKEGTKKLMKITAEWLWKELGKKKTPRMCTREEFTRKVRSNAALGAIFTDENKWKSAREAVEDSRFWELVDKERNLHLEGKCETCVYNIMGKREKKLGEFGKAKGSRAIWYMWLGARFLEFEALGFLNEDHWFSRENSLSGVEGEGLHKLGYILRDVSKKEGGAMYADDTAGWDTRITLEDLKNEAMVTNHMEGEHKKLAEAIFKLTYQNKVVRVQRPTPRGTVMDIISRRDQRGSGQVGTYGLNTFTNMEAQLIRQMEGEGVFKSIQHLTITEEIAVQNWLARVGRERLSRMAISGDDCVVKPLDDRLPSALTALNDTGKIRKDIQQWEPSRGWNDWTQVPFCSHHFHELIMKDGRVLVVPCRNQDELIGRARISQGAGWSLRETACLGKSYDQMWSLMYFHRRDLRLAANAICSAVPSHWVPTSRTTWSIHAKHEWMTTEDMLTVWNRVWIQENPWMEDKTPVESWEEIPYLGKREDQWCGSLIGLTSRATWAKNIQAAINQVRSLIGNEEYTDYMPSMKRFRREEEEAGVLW", "assay": "flavivirus cap methylation enzyme inhibition – biochemical, confirmation dose response, primary screen (AID 588689)", "assay_type": "functional"}, "[13]": {"molecular_target": "NAD-dependent protein deacylase sirtuin-5, mitochondrial (Homo sapiens, UniProt Q9NXA8)", "sequence (Q9NXA8 whole entry)": "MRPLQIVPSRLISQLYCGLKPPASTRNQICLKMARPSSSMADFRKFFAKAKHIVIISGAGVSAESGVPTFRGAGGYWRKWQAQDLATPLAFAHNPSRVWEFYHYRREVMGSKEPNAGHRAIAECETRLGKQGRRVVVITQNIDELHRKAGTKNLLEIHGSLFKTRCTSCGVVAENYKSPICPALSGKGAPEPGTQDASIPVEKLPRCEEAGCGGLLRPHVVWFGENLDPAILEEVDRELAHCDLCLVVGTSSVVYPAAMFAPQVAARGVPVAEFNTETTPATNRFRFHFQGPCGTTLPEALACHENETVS", "assay": "sirtuin-5 deacylation blockers, concentration series – biochemical, fluorescence imaging, cherry-pick, set 5, dose response (AID 720591);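 further: desuccinylation of succinyl peptide AMC substrate read as fluorescence after trypsin release; potency of inhibitors that lower fluorescence and may act on trypsin instead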"}, "H4": {"tested_on": "H4", "assay": "Luminescence Cell-Based Dose Response HTS to Identify Activators of 5'UTR Stem-Loop Driven Prion Protein mRNA Translation in H4 Neuroglioblastoma Cells. [Related pubchem assays: 1829 (Project Summary), 1814 (Primary HTS)]", "assay_type": "functional", "settings": "Homo sapiens"}, "[14]": {"assay": "Luminescence Cell-Based Dose Response HTS to Identify Activators of Luciferase Translation or Activity in H4 […] Cells. [Related pubchem assays: 1829 (Project Summary), 1814 (Primary HTS)]", "assay_type": "functional"}, "[15]": {"molecular_target": "Heat shock protein HSP 90-alpha (Homo sapiens, UniProt P07900)", "assay": "Luminescence-based dose response biochemical high throughput screening assay for inhibitors of the Heat Shock Protein 90 (HSP90). [Related pubchem assays: 1831 (Summary AID.), 1846 (Confirmation screen.), 1789 (Primary screen.)]"}}, "note": "Active and inactive are the calls of the source.", "data": [{"smiles": "COc1cc(NC(C)CCCNC(C)C)c2ncccc2c1OC", "note": "(stereo not given)", "values": [{"measurement": "IC50", "setting": "[1]", "value": "49.3 µM (inactive)"}, {"measurement": "IC50", "setting": "[2]", "value": "> 66 µM (inactive)"}, {"measurement": "IC50", "setting": "[3]", "value": "31.7 µM (active)"}, {"measurement": "AC50", "setting": "Caspase-9", "value": "> 70 µM (inactive)"}, {"measurement": "AC50", "setting": "Caspase-6", "value": "1.52 µM (active)"}, {"measurement": "AC50", "setting": "Caspase-7", "value": "23.2 µM (active)"}]}, {"smiles": "Cn1c(-c2ccc(Cl)cc2)ccc(C#N)c1=O", "values": [{"measurement": "IC50", "setting": "[4]", "value": "> 100 µM (active)"}, {"measurement": "AC50", "setting": "[5]", "value": "68.9 µM (active)"}, {"measurement": "AC50", "setting": "[6]", "value": "2.46 µM (active)"}, {"measurement": "EC50", "setting": "[7]", "value": "> 120 µM (not active)"}, {"measurement": "AC50", "setting": "[8]", "value": "2.62 µM (active)"}, {"measurement": "EC50", "setting": "[9]", "value": "8.33 µM (active)"}, {"measurement": "EC50", "setting": "[10]", "value": "> 120 µM (not active)"}]}, {"smiles": "CSc1cccc(-n2cc(-c3ccc4c(c3)OCO4)nc2O)c1", "values": [{"measurement": "CC50", "setting": "[11]", "value": "> 40 µM (active)"}]}, {"smiles": "O=C(CCN1C(=O)S/C(=C/c2ccccc2)C1=O)Nc1ccc(O)c(C(=O)O)c1", "values": [{"measurement": "IC50", "setting": "[12]", "value": "> 96.6 µM (inactive)"}, {"measurement": "IC50", "setting": "Genome polyprotein", "value": "91.6 µM (active)"}]}, {"smiles": "Nc1nc(CSc2ccc(Cl)cc2)nc(N2CCCCC2)n1", "values": [{"measurement": "AC50", "setting": "[13]", "value": "26.5 µM (active)"}]}, {"smiles": "CCc1ccc(OCc2ccc(C(=O)OC)o2)cc1", "values": [{"measurement": "EC50", "setting": "H4", "value": "2.81 µM (active)"}, {"measurement": "EC50", "setting": "[14]", "value": "16.4 µM (active)"}, {"measurement": "IC50", "setting": "[15]", "value": "0.551 µM (active)"}]}]}
